Results taken from patent publication US20160333019A1, “SYNTHESIS AND FORMULATIONS OF PORPHYRIN COMPOUNDS” (Aeolus Sciences, Inc., priority 2013, published 2016).

Columns and labels:
Assay type in all cases: physicochemical
[1] = pH titration of 75 mg/mL Formula (VI) in WFI with 1.0N HCl; settings: 75 mg/mL in water titrated with hydrochloric acid
Procedure: A solution of 75 mg/mL compound was prepared by dissolving in WFI and gently mixing for 16-24 hours prior to the titration. The titration of compound with a strong acid provided information for this compound in terms of “apparent” pKa.
In addition, this mixing would allow oxidation of trace Mn (II) compound to the higher oxidation state of Mn (III). The drug solution was titrated with 1.0 N HCl at 30 μL increments.
About 10 g of WFI was placed in the container including stir bar. […] The solution was them mixed at room temperature for 16-24 hours. At the end of the 16-24 hour hold/mix, the solution was titrated from its starting pH of about 9 down to pH 3 using 1N HCl.
Due to a big molecular structure (MW=1033), the sample preparation required an unusually long mixing process for 16-24 hours in order to complete the dissociation of drug and the oxidation of trace […] compound into a higher oxidation state of Mn (III). This mixing process was crucial to achieve the final pH equilibrium.

[2] = Study 2: 75 mg/mL Formula (VI) in WFI at pH 7.0, 14 days at 60° C.
Procedure: The samples were filled in glass vials and capped with an air headspace. All samples were tested and evaluated for physicochemical stability under the storage conditions at 2-8 and 60° C. after 0, 3, 7 and 14 days.
About 10 g of WFI was placed in the container including a stir bar.
The pH was measured at approximately hourly intervals and at about 16 hours and 24 hours. At the end of the 16-24 hour hold/mix, the pH of the solution was adjusted to pH 7.0 with either HCl or NaOH and mixed for approximately 15 minutes. The solution was filtered through a PVDF, 0.22 μm filter into a clean container and its pH measured.
The pH was measured at 30 minutes then hourly thereafter for the 16-24 hour time period. Once the solution pH and osmolality stabilized, the air sparging was stopped. The solution was adjusted to pH 7.0 with either HCl or NaOH and mixed for about 15 minutes. The solution was filtered through a PVDF, 0.22 μm filter into clean container and the pH measured.
Both samples were then stored at 60° C. and samples taken at 0, 3, 7 and 14 days from both containers and to measure pH. […]

[3] = Study 3: various strengths of Formula (VI) in WFI at pH 7.0, with and without ascorbic acid
Procedure: Ascorbic acid was also included in this study. […] The samples were tested and evaluated for physicochemical stability under 2-8 and 60° C. storage conditions after 0, 3, 7 and 14 days.
(§1) About 10 g of WFI was placed in the container including a stir bar. […] The pH was measured and the solution was mixed at room temperature for 16-24 hours. At the end of the 16-24 hour hold/mix, the pH of solution was adjusted to pH 7.0 with either HCl or NaOH and mixed for about 15 minutes. The solution was filtered through a PVDF, 0.22 μm filter by discarding about 1 mL prior to placing about 9-10 mL into each of two separate clean containers. The pH of the samples was then measured.
as §1, with “bar. […] About 0.1026 g of Ascorbic Acid was added to the container while mixing.” for “bar.”, “discarding” for “discarding about”
as §1, with “bar. […] About 0.103 g of Ascorbic Acid was added to the container while mixing.” for “bar.”
Following preparation of the solutions, one container of each of solutions 1-6 was stored at 2-8° C. The remaining containers for each of solutions 1-6 were stored at 60° C. From each container, a sample was taken at 0, 3, 7 and 14 days and the pH of the solution was measured.

[4] = Study 4: 75 mg/mL Formula (VI) in WFI at pH 7.0 under ICH storage temperatures; settings: after 1 month
Procedure: as §1, with “4-5” for “9-10”, “four” for “two”, “containers (A, B, C, D).” for “containers.”, “measured. Solution A was stored at 2-8° C., solution B at 25° C., solution C at 30° C. and solution D at 40° C. […]” for “measured.”

"apparent" pKa [1]: 9.02
pH decrease ([2]; 75 mg/mL in water at pH 7.0, 60° C., after 14 days): 1-2 pH units
pH stability ([2]; 75 mg/mL in water at pH 7.0, refrigerated condition): relatively stable
chemical stability, air sparged versus non-sparged sample ([2]; 75 mg/mL in water pH 7, 60° C.): better stability
degradation lower than that from the control sample ([2]; 75 mg/mL in water pH 7, all samples stored at 60° C., after 14 days): 3-6%
pH increase ([3]; 100 mg/mL refrigerated sample without ascorbic acid, after 3 day storage): ~1 pH unit
pH decrease compared to the control sample ([3]; 100 mg/mL sample without ascorbic acid, 60° C., after 14 days): ~2 pH units
degradation ([3]; 65, 75, 100 mg/mL in water pH 7 containing ascorbic acid, 60° C., after 14 days): 3-5%
degradation ([3]; 65, 75, 100 mg/mL in water pH 7 without ascorbic acid, 60° C., after 14 days): 3-5%
pH decrease ([3]; 65 and 75 mg/mL samples without ascorbic acid, 60° C., after 14 days): ~2 pH units
pH stability ([3]; 65 and 75 mg/mL samples without ascorbic acid, refrigerated condition): relatively stable
pH increase from initial pH ([3]; all refrigerated samples containing ascorbic acid, after 14 days): ~1.5 pH units
pH decrease from initial pH ([3]; samples containing ascorbic acid, 60° C., after 3 days): ~2 pH units
pH rise back ([3]; samples containing ascorbic acid, 60° C., after 14 days): 1-1.5 pH units
chemical stability ([4]; 75 mg/mL in water pH 7, each storage condition): No significant change
pH decrease ([4]; 75 mg/mL pH 7, 25° C.): approximately 0.3 pH units
pH decrease ([4]; 75 mg/mL pH 7, 30° C.): ~0.5 pH units
pH decrease ([4]; 75 mg/mL pH 7, 40° C.): ~1.1 pH units
osmolality ([4]; 75 mg/mL pH 7, all samples): 270-276 mOsm/kg
pH change ([4]; 75 mg/mL pH 7, refrigerated sample): ≤ 0.1 pH unit
Substance: [5,10,15,20-tetrakis(1,3-diethylimidazolium-2-yl)porphyrinato]manganese(III) chloride hydrate complex [Formula (VI)]
dependence of drug stability on pH ([2]; 75 mg/mL in WFI, 2-8 and 60° C., 0, 3, 7 and 14 days): The lower the pH, the greater the drug stability
